Experimental data from patent US9695155B2, “Herbicidal substituted pyrimidinyloxy benzene compounds” (E. I. DU PONT DE NEMOURS AND COMPANY, priority 2013, dated 2017).

Key:
Assay in all cases: Test E preemergence
corn = type: in vivo, Zea mays; settings: for Corn plant response rating: scale 0 to 100 (0 no effect, 100 complete control)
Description: (§1) Seeds of plant species selected from corn (Zea mays), soybean (Glycine max), velvetleaf (Abutilon theophrasti), lambsquarters (Chenopodium album), wild poinsettia (Euphorbia heterophylla), palmer pigweed (Amaranthus palmeri), waterhemp (common waterhemp, Amaranthus rudis), surinam grass (Brachiaria decumbens), large (Lg) crabgrass (Digitaria sanguinalis), Brazilian crabgrass (Digitaria horizontalis), fall panicum (Panicum dichotomiflorum), giant foxtail (Setaria faberii), green foxtail (Setaria viridis), goosegrass (Eleusine indica), johnsongrass (Sorghum halepense), ragweed (common ragweed, Ambrosia elatior), barnyardgrass (Echinochloa crus-galli), sandbur (southern sandbur, Cenchrus echinatus), arrowleaf sida (Sida rhombifolia), Italian ryegrass (Lolium multiflorum), dayflower (Virginia (VA) dayflower, Commelina virginica), field bindweed (Convolvulus arvensis), morningglory (Ipomoea coccinea), nightshade (eastern black nightshade, Solanum ptycanthum), kochia (Kochia scoparia), yellow nutsedge (Cyperus esculentus), cocklebur (common cocklebur, Xanthium strumarium), smartweed (ladysthumb smartweed, and hairy beggarticks (Bidens pilosa), were planted into a silt loam soil and treated preemergence with test chemicals formulated in a non-phytotoxic solvent mixture which included a surfactant.
(§2) At the same time, plants from these crop and weed species and also horseweed (Canada horseweed, Conyza canadensis), waterhemp_RES1, (ALS & Triazine resistant common waterhemp, Amaranthus rudis), and waterhemp_RES2, (ALS & HPPD resistant common waterhemp, Amaranthus rudis) were planted in pots containing Redi-Earth® planting medium (Scotts Company, 14111 Scottslawn Road, Marysville, Ohio 43041) comprising spaghnum peat moss, vermiculite, wetting agent and starter nutrients were treated with postemergence applications of test chemicals formulated in the same manner. Plants ranged in height from 2 to 18 cm for postemergence treatments (1- to 4-leaf stage). Treated plants and controls were maintained in a greenhouse for 14 to 21 days, after which time all species were compared to controls and visually evaluated. Plant response ratings, summarized in Table E, are based on a scale of 0 to 100 where 0 is no effect and 100 is complete control. A dash (-) response means no test result.

field bindweed = type: in vivo, Convolvulus arvensis; settings: for Field Bindweed plant response rating: scale 0 to 100 (0 no effect, 100 complete control)
Description: as §1, §2

morningglory = type: in vivo, Ipomoea coccinea; settings: for Morningglory plant response rating: scale 0 to 100 (0 no effect, 100 complete control)
Description: as §1, §2

hairy beggarticks = type: in vivo, Bidens pilosa; settings: for Beggarticks plant response rating: scale 0 to 100 (0 no effect, 100 complete control)
Description: as §1, §2

palmer pigweed = type: in vivo, Amaranthus palmeri; settings: for Pigweed, Palmer plant response rating: scale 0 to 100 (0 no effect, 100 complete control)
Description: as §1, §2

arrowleaf sida = type: in vivo, Sida rhombifolia; settings: for Arrowleaf Sida plant response rating: scale 0 to 100 (0 no effect, 100 complete control)
Description: as §1, §2

dayflower = type: in vivo, Commelina virginica; settings: for Dayflower, VA plant response rating: scale 0 to 100 (0 no effect, 100 complete control)
Description: as §1, §2

yellow nutsedge = type: in vivo, Cyperus esculentus; settings: for Nutsedge, Yellow plant response rating: scale 0 to 100 (0 no effect, 100 complete control)
Description: as §1, §2

wild poinsettia = type: in vivo, Euphorbia heterophylla; settings: for Poinsettia, Wild plant response rating: scale 0 to 100 (0 no effect, 100 complete control)
Description: as §1, §2

Brazilian crabgrass = type: in vivo, Digitaria horizontalis; settings: for Crabgrass, Brazil plant response rating: scale 0 to 100 (0 no effect, 100 complete control)
Description: as §1, §2

lambsquarters = type: in vivo, Chenopodium album; settings: for Lambsquarters plant response rating: scale 0 to 100 (0 no effect, 100 complete control)
Description: as §1, §2

[1] = 125 g ai/ha, scale 0 to 100, 0 no effect, 100 complete control
[2] = Preemergence, 62 g ai/ha, scale 0 to 100, 0 no effect, 100 complete control
[3] = preemergence, 125 g ai/ha, scale 0 to 100, 0 no effect, 100 complete control
[4] = 8 g ai/ha, scale 0 to 100, 0 is no effect, 100 is complete control
[5] = 8 g ai/ha, preemergence, scale 0 to 100, 0 is no effect, 100 is complete control
[6] = 250 g ai/ha, scale 0 to 100, 0 no effect, 100 complete control
[7] = preemergence, 250 g ai/ha, scale 0 to 100, 0 no effect, 100 complete control

## Cc1cnc(Oc2cccc(C#N)c2-n2cc(C#N)cn2)nc1 [Compound 90]
corn; 16 g ai/ha
  Corn plant response rating: 0
corn; 31 g ai/ha
  Corn plant response rating: 0
corn; 62 g ai/ha
  Corn plant response rating: 0
corn; [1]
  Plant response rating, Corn: 0
Field bindweed; 16 g ai/ha
  Field Bindweed plant response rating: 35
Field bindweed; 31 g ai/ha
  Field Bindweed plant response rating: 50
Field bindweed; 62 g ai/ha
  Field Bindweed plant response rating: 70
Field bindweed; [1]
  Plant response rating, Field Bindweed: 65
morningglory; 16 g ai/ha
  Morningglory plant response rating: 0
morningglory; 31 g ai/ha
  Morningglory plant response rating: 0
morningglory; 62 g ai/ha
  Morningglory plant response rating: 20
morningglory; [1]
  Plant response rating, Morningglory: 35
Hairy beggarticks; 16 g ai/ha, preemergence
  Beggarticks plant response rating: 0
Hairy beggarticks; 31 g ai/ha, preemergence
  Beggarticks plant response rating: 5
Hairy beggarticks; [2]
  Plant response rating, Beggarticks: 10
Hairy beggarticks; [3]
  Plant response rating, Beggarticks: 30
Palmer pigweed; 16 g ai/ha
  Pigweed, Palmer plant response rating: 0
Palmer pigweed; 31 g ai/ha
  Pigweed, Palmer plant response rating: 0
Palmer pigweed; 62 g ai/ha
  Pigweed, Palmer plant response rating: 0
Palmer pigweed; [1]
  Plant response rating, Pigweed, Palmer: 65
Arrowleaf sida; 16 g ai/ha, preemergence
  Arrowleaf Sida plant response rating: 20
Arrowleaf sida; 31 g ai/ha, preemergence
  Arrowleaf Sida plant response rating: 50
Arrowleaf sida; [2]
  Plant response rating, Arrowleaf Sida: 75
Arrowleaf sida; [3]
  Plant response rating, Arrowleaf Sida: 90
dayflower; 16 g ai/ha
  Dayflower, VA plant response rating: 0
dayflower; 31 g ai/ha
  Dayflower, VA plant response rating: 0
dayflower; [1]
  Plant response rating, Dayflower, VA: 0
Yellow nutsedge; 16 g ai/ha
  Nutsedge, Yellow plant response rating: 0
Yellow nutsedge; 31 g ai/ha
  Nutsedge, Yellow plant response rating: 0
Yellow nutsedge; 62 g ai/ha
  Nutsedge, Yellow plant response rating: 0
Yellow nutsedge; [1]
  Plant response rating, Nutsedge, Yellow: 0
Wild poinsettia; 16 g ai/ha
  Poinsettia, Wild plant response rating: 10
Wild poinsettia; 31 g ai/ha
  Poinsettia, Wild plant response rating: 35
Wild poinsettia; 62 g ai/ha
  Poinsettia, Wild plant response rating: 70
Wild poinsettia; [1]
  Plant response rating, Poinsettia, Wild: 75
Brazilian crabgrass; 16 g ai/ha
  Crabgrass, Brazil plant response rating: 0
Brazilian crabgrass; 31 g ai/ha
  Crabgrass, Brazil plant response rating: 20
Brazilian crabgrass; 62 g ai/ha
  Crabgrass, Brazil plant response rating: 50
Brazilian crabgrass; [1]
  Plant response rating, Crabgrass, Brazil: 80
lambsquarters; 16 g ai/ha
  Lambsquarters plant response rating: 5
lambsquarters; 31 g ai/ha
  Lambsquarters plant response rating: 75
lambsquarters; 62 g ai/ha
  Lambsquarters plant response rating: 50
lambsquarters; [1]
  Plant response rating, Lambsquarters: 100

## FC(F)c1cccc(Oc2ncc(Cl)cn2)c1-n1cc(C(F)(F)F)cn1 [Compound 170]
corn; [4]
  Plant response rating, Corn: 0
corn; 16 g ai/ha
  Corn plant response rating: 0
corn; 31 g ai/ha
  Corn plant response rating: 20
corn; 62 g ai/ha
  Corn plant response rating: 10
corn; [1]
  Plant response rating, Corn: 30
Field bindweed; [4]
  Plant response rating, Field Bindweed: 0
Field bindweed; 16 g ai/ha
  Field Bindweed plant response rating: 0
Field bindweed; 31 g ai/ha
  Field Bindweed plant response rating: 0
Field bindweed; 62 g ai/ha
  Field Bindweed plant response rating: 20
Field bindweed; [1]
  Plant response rating, Field Bindweed: 30
morningglory; [4]
  Plant response rating, Morningglory: 0
morningglory; 31 g ai/ha
  Morningglory plant response rating: 10
morningglory; 62 g ai/ha
  Morningglory plant response rating: 35
morningglory; [1]
  Plant response rating, Morningglory: 95
Hairy beggarticks; [5]
  Plant response rating, Beggarticks: 0
Hairy beggarticks; 16 g ai/ha, preemergence
  Beggarticks plant response rating: 0
Hairy beggarticks; 31 g ai/ha, preemergence
  Beggarticks plant response rating: 0
Hairy beggarticks; 62 g ai/ha, preemergence
  Beggarticks plant response rating: 0
Hairy beggarticks; [3]
  Plant response rating, Beggarticks: 0
Palmer pigweed; [4]
  Plant response rating, Pigweed, Palmer: 0
Palmer pigweed; 31 g ai/ha
  Pigweed, Palmer plant response rating: 95
Palmer pigweed; 62 g ai/ha
  Pigweed, Palmer plant response rating: 100
Palmer pigweed; [1]
  Plant response rating, Pigweed, Palmer: 100
Arrowleaf sida; [5]
  Plant response rating, Arrowleaf Sida: 0
Arrowleaf sida; 16 g ai/ha, preemergence
  Arrowleaf Sida plant response rating: 0
Arrowleaf sida; 31 g ai/ha, preemergence
  Arrowleaf Sida plant response rating: 10
Arrowleaf sida; 62 g ai/ha, preemergence
  Arrowleaf Sida plant response rating: 90
Arrowleaf sida; [3]
  Plant response rating, Arrowleaf Sida: 100
dayflower; [4]
  Plant response rating, Dayflower, VA: 0
dayflower; 16 g ai/ha
  Dayflower, VA plant response rating: 30
dayflower; 31 g ai/ha
  Dayflower, VA plant response rating: 30
dayflower; 62 g ai/ha
  Dayflower, VA plant response rating: 80
dayflower; [1]
  Plant response rating, Dayflower, VA: 95
Yellow nutsedge; [4]
  Plant response rating, Nutsedge, Yellow: 0
Yellow nutsedge; 31 g ai/ha
  Nutsedge, Yellow plant response rating: 20
Yellow nutsedge; 62 g ai/ha
  Nutsedge, Yellow plant response rating: 30
Yellow nutsedge; [1]
  Plant response rating, Nutsedge, Yellow: 40
Wild poinsettia; [4]
  Plant response rating, Poinsettia, Wild: 0
Wild poinsettia; 31 g ai/ha
  Poinsettia, Wild plant response rating: 20
Wild poinsettia; 62 g ai/ha
  Poinsettia, Wild plant response rating: 25
Wild poinsettia; [1]
  Plant response rating, Poinsettia, Wild: 40
Brazilian crabgrass; [4]
  Plant response rating, Crabgrass, Brazil: 30
Brazilian crabgrass; 16 g ai/ha
  Crabgrass, Brazil plant response rating: 40
Brazilian crabgrass; 31 g ai/ha
  Crabgrass, Brazil plant response rating: 100
Brazilian crabgrass; 62 g ai/ha
  Crabgrass, Brazil plant response rating: 100
Brazilian crabgrass; [1]
  Plant response rating, Crabgrass, Brazil: 100
lambsquarters; [4]
  Plant response rating, Lambsquarters: 0
lambsquarters; 31 g ai/ha
  Lambsquarters plant response rating: 98
lambsquarters; 62 g ai/ha
  Lambsquarters plant response rating: 100
lambsquarters; [1]
  Plant response rating, Lambsquarters: 100

## Cc1cnc(Oc2cccc(C#N)c2-n2cc(C(F)(F)F)cn2)nc1 [Compound 180]
corn; 31 g ai/ha
  Corn plant response rating: 0
corn; 62 g ai/ha
  Corn plant response rating: 15
corn; [1]
  Plant response rating, Corn: 40
corn; [6]
  Plant response rating, Corn: 65
Field bindweed; 31 g ai/ha
  Field Bindweed plant response rating: 10
Field bindweed; 62 g ai/ha
  Field Bindweed plant response rating: 25
Field bindweed; [1]
  Plant response rating, Field Bindweed: 65
Field bindweed; [6]
  Plant response rating, Field Bindweed: 90
morningglory; 31 g ai/ha
  Morningglory plant response rating: 0
morningglory; 62 g ai/ha
  Morningglory plant response rating: 15
morningglory; [1]
  Plant response rating, Morningglory: 60
morningglory; [6]
  Plant response rating, Morningglory: 100
Hairy beggarticks; 31 g ai/ha, preemergence
  Beggarticks plant response rating: 10
Hairy beggarticks; 62 g ai/ha, preemergence
  Beggarticks plant response rating: 20
Hairy beggarticks; [3]
  Plant response rating, Beggarticks: 40
Hairy beggarticks; [7]
  Plant response rating, Beggarticks: 90
Palmer pigweed; 31 g ai/ha
  Pigweed, Palmer plant response rating: 0
Palmer pigweed; 62 g ai/ha
  Pigweed, Palmer plant response rating: 0
Palmer pigweed; [1]
  Plant response rating, Pigweed, Palmer: 75
Palmer pigweed; [6]
  Plant response rating, Pigweed, Palmer: 90
Arrowleaf sida; 31 g ai/ha, preemergence
  Arrowleaf Sida plant response rating: 15
Arrowleaf sida; 62 g ai/ha, preemergence
  Arrowleaf Sida plant response rating: 30
Arrowleaf sida; [3]
  Plant response rating, Arrowleaf Sida: 70
Arrowleaf sida; [7]
  Plant response rating, Arrowleaf Sida: 85
dayflower; 31 g ai/ha
  Dayflower, VA plant response rating: 0
dayflower; 62 g ai/ha
  Dayflower, VA plant response rating: 35
dayflower; [1]
  Plant response rating, Dayflower, VA: 85
dayflower; [6]
  Plant response rating, Dayflower, VA: 90
Yellow nutsedge; 31 g ai/ha
  Nutsedge, Yellow plant response rating: 0
Yellow nutsedge; 62 g ai/ha
  Nutsedge, Yellow plant response rating: 30
Yellow nutsedge; [1]
  Plant response rating, Nutsedge, Yellow: 60
Yellow nutsedge; [6]
  Plant response rating, Nutsedge, Yellow: 75
Wild poinsettia; 31 g ai/ha
  Poinsettia, Wild plant response rating: 10
Wild poinsettia; 62 g ai/ha
  Poinsettia, Wild plant response rating: 15
Wild poinsettia; [1]
  Plant response rating, Poinsettia, Wild: 65
Wild poinsettia; [6]
  Plant response rating, Poinsettia, Wild: 98
Brazilian crabgrass; 31 g ai/ha
  Crabgrass, Brazil plant response rating: 90
Brazilian crabgrass; 62 g ai/ha
  Crabgrass, Brazil plant response rating: 100
Brazilian crabgrass; [1]
  Plant response rating, Crabgrass, Brazil: 100
Brazilian crabgrass; [6]
  Plant response rating, Crabgrass, Brazil: 100
lambsquarters; 31 g ai/ha
  Lambsquarters plant response rating: 98
lambsquarters; 62 g ai/ha
  Lambsquarters plant response rating: 100
lambsquarters; [1]
  Plant response rating, Lambsquarters: 100
lambsquarters; [6]
  Plant response rating, Lambsquarters: 100
